Tested on: GM3
Experiment: GM3 Elisa assay
Type: cell-based
Settings: Table 3 (IC 50 Values); B16-FO cells; read-out: IC50_uM_Mean
In short: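 Murine B16-FO melanoma cells attached 6 h on collagen, then exposed to compounds for 2 days at 37 °C. After formaldehyde fixation, cell-surface GM3 (NeuAc) was detected by anti-GM3 IgM and peroxidase anti-mouse IgM with Quantablu fluorescence (Ex 325/Em 420).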

Row | IC50 [µM] | Compound
1 | 1 to 3 | COc1ccc(C(=O)CCCCC(=O)N[C@H](CN2CCCC2)[C@H](O)c2ccc3c(c2)OC(F)(F)O3)cc1 [Compound 408]
2 | 0.1 to 1 | COc1ccc(C(=O)CCCCCC(=O)N[C@H](CN2CCCC2)[C@H](O)c2ccc3c(c2)OC(F)(F)O3)cc1 [Compound 409]
3 | 3 to 10 | O=C(Cc1ccc(OC(F)(F)F)cc1)N[C@H](CN1CCCC1)[C@H](O)c1ccc2c(c1)OC(F)(F)O2 [Compound 410]
4 | 3 to 10 | CCCCCCCC(=O)N[C@H](CN1CCCC1)[C@H](O)c1ccc2c(c1)OC(F)(F)O2 [Compound 411]
5 | ≤ 0.1 | CCCCOc1ccc([C@@H](O)[C@@H](CN2CCCC2)NC(=O)CCOc2ccc(OC)cc2)cc1 [Compound 412]
6 | ≤ 0.1 | CCCCCCOc1ccc([C@@H](O)[C@@H](CN2CCCC2)NC(=O)CCOc2ccc(OC)cc2)cc1 [Compound 413]
7 | 0.1 to 1 | COc1ccc(C(=O)CCCCC(=O)N[C@H](CN2CCCC2)[C@H](O)c2ccc(O)cc2)cc1 [Compound 414]
8 | 0.1 to 1 | COCCOCCOc1ccc([C@@H](O)[C@@H](CN2CCCC2)NC(=O)CCCCC(=O)c2ccc(OC)cc2)cc1 [Compound 415]
9 | ≤ 0.1 | COc1ccc(OCCOc2ccc([C@@H](O)C(CN3CCCC3)NC(=O)CCCCC(=O)c3ccc(OC)cc3)cc2)cc1 (stereo partly drawn) [Compound 416]
10 | ≤ 0.1 | COCCOc1ccc([C@@H](O)[C@@H](CN2CCCC2)NC(=O)CCCCC(=O)c2ccc(OC)cc2)cc1 [Compound 417]
11 | ≤ 0.1 | COc1ccc(C(=O)CCCCC(=O)N[C@H](CN2CCCC2)[C@H](O)c2ccc(OCCOc3ccccc3)cc2)cc1 [Compound 418]
12 | ≤ 0.1 | COc1ccc(C(=O)CCCCC(=O)N[C@H](CN2CCCC2)[C@H](O)c2ccc(OCCC3CCCCC3)cc2)cc1 [Compound 419]
13 | ≤ 0.1 | COc1ccc(C(=O)CCCCC(=O)N[C@H](CN2CCCC2)[C@H](O)c2ccc(OCC3CCCCC3)cc2)cc1 [Compound 420]
14 | ≤ 0.1 | COc1ccc(C(=O)CCCCC(=O)N[C@H](CN2CCCC2)[C@H](O)c2ccc(OCC3CCC3)cc2)cc1 [Compound 421]
15 | 3 to 10 | COc1ccc(C(=O)CCCCC(=O)N(Cc2ccccn2)[C@H](CN2CCCC2)[C@H](O)c2ccc(O)cc2)cc1 [Compound 422]
16 | 1 to 3 | COCCOc1ccc([C@@H](O)[C@@H](CN2CCCC2)N(CCOC)C(=O)CCCCC(=O)c2ccc(OC)cc2)cc1 [Compound 423]
17 | 3 to 10 | COc1ccc(C(=O)CCCCC(=O)N(CC(=O)c2ccc(OC)cc2)[C@H](CN2CCCC2)[C@H](O)c2ccc(O)cc2)cc1 [Compound 424]
18 | 3 to 10 | COc1ccc(C(=O)CCCCC(=O)N(Cc2cccnc2)[C@H](CN2CCCC2)[C@H](O)c2ccc(O)cc2)cc1 [Compound 425]
19 | 3 to 10 | COc1ccc(CN(C(=O)CCCCC(=O)c2ccc(OC)cc2)[C@H](CN2CCCC2)[C@H](O)c2ccc(O)cc2)cc1 [Compound 426]
20 | 3 to 10 | COc1ccc(C(=O)CCCCC(=O)N(Cc2ccc(OC(F)F)cc2)[C@H](CN2CCCC2)[C@H](O)c2ccc(O)cc2)cc1 [Compound 427]
21 | 3 to 10 | COc1ccc(C(=O)CCCCC(=O)N(CC2CCCC2)[C@H](CN2CCCC2)[C@H](O)c2ccc(O)cc2)cc1 [Compound 428]
22 | 3 to 10 | COc1ccc(OCCCN(C(=O)CCCCC(=O)c2ccc(OC)cc2)[C@H](CN2CCCC2)[C@H](O)c2ccc(O)cc2)cc1 [Compound 429]

Row | IC50 [µM] | Compound
23 | ≤ 0.1 | COc1ccc(C(=O)CCCCC(=O)N[C@H](CN2CCCC2)[C@H](O)c2ccc(OCCCOc3ccc(C)cc3)cc2)cc1 [Compound 430]
24 | ≤ 0.1 | COc1ccc(C(=O)CCCCC(=O)N[C@H](CN2CCCC2)[C@H](O)c2ccc(OCCCOc3ccc(F)cc3)cc2)cc1 [Compound 431]
25 | ≤ 0.1 | COc1ccc(C(=O)CCCCC(=O)N[C@H](CN2CCCC2)[C@H](O)c2ccc(OCCCC(F)(F)F)cc2)cc1 [Compound 432]
26 | ≤ 0.1 | COc1ccc(C(=O)CCCCC(=O)N[C@H](CN2CCCC2)[C@H](O)c2ccc(OCCCOc3ccccc3)cc2)cc1 [Compound 433]
27 | ≤ 0.1 | CCCCOc1ccc([C@@H](O)[C@@H](CN2CCCC2)NC(=O)CCCCC(=O)c2ccc(OC)cc2)cc1 [Compound 434]
28 | ≤ 0.1 | COc1ccc(C(=O)CCCCC(=O)N[C@H](CN2CCCC2)[C@H](O)c2ccc(OCCCCF)cc2)cc1 [Compound 435]
29 | ≤ 0.1 | COc1ccc(C(=O)CCCCC(=O)N[C@H](CN2CCCC2)[C@H](O)c2ccc(OCCCCC(C)C)cc2)cc1 [Compound 436]
30 | ≤ 0.1 | COc1ccc(C(=O)CCCCC(=O)N[C@H](CN2CCCC2)[C@H](O)c2ccc(OCCCOc3cccc(C)c3)cc2)cc1 [Compound 437]
31 | ≤ 0.1 | COc1ccc(C(=O)CCCCC(=O)N[C@H](CN2CCCC2)[C@H](O)c2ccc(OCCC(C)C)cc2)cc1 [Compound 438]
32 | 0.1 to 1 | COc1ccc(C(=O)CCCCC(=O)N[C@H](CN2CCCC2)[C@H](O)c2ccc(OC[C@H](C)CO)cc2)cc1 [Compound 439]
33 | ≤ 0.1 | COc1ccc(CCOc2ccc([C@@H](O)[C@@H](CN3CCCC3)NC(=O)CCCCC(=O)c3ccc(OC)cc3)cc2)cc1 [Compound 440]
34 | ≤ 0.1 | CC[C@H](C)COc1ccc([C@@H](O)[C@@H](CN2CCCC2)NC(=O)CCCCC(=O)c2ccc(OC)cc2)cc1 [Compound 441]
35 | ≤ 0.1 | CCCCCCOc1ccc([C@@H](O)[C@@H](CN2CCCC2)NC(=O)CCCC(=O)c2ccc(OCCOC)cc2)cc1 [Compound 442]
36 | ≤ 0.1 | CCCCCCOc1ccc([C@@H](O)[C@@H](CN2CCCC2)NC(=O)CCCCC(=O)c2ccc(OCCOC)cc2)cc1 [Compound 443]
37 | 0.1 to 1 | COc1ccc(C(=O)CCCC(=O)N[C@H](CN2CC[C@@H](F)C2)[C@H](O)c2ccc(OC(C)C)cc2)cc1 [Compound 444]
38 | 0.1 to 1 | COc1ccc(OCCCC(=O)N[C@H](CN2CC[C@@H](F)C2)[C@H](O)c2ccc(OC(C)C)cc2)cc1 [Compound 445]
39 | ≤ 0.1 | CC(C)Oc1ccc([C@@H](O)[C@@H](CN2CC[C@@H](F)C2)NC(=O)Cc2ccc(-c3ccc(Cl)cc3)cc2)cc1 [Compound 446]
40 | ≤ 0.1 | COc1ccc(OCCC(=O)N[C@H](CN2CC[C@H](O)C2)[C@H](O)c2ccc(OC(C)C)cc2)cc1 [Compound 447]
41 | 0.1 to 1 | Cc1ccc(OCCC(=O)N[C@H](CN2CC[C@@H](F)C2)[C@H](O)c2ccc(OC(C)C)cc2)cc1 [Compound 448]
42 | ≤ 0.1 | COCCOc1ccc(C(=O)CCCC(=O)N[C@H](CN2CCCC2)[C@H](O)c2ccc3c(c2)OCCO3)cc1 [Compound 449]
43 | ≤ 0.1 | COCCOc1ccc(C(=O)CCCCC(=O)N[C@H](CN2CCCC2)[C@H](O)c2ccc3c(c2)OCCO3)cc1 [Compound 450]
44 | 0.1 to 1 | COCCOc1ccc(C(=O)CCCC(=O)N[C@H](CN2CCCC2)[C@H](O)c2ccc(OC(C)C)cc2)cc1 [Compound 451]

Row | IC50 [µM] | Compound
45 | 0.1 to 1 | COc1ccc(OCCC(=O)N[C@H](CN2CC[C@@H](F)C2)[C@H](O)c2ccc(OC(C)C)cc2)cc1 [Compound 452]
46 | ≤ 0.1 | COCCOc1ccc(C(=O)CCCCC(=O)N[C@H](CN2CCCC2)[C@H](O)c2ccc(OC(C)C)cc2)cc1 [Compound 453]
47 | ≤ 0.1 | CCCCCCOc1ccc([C@@H](O)[C@@H](CN2CC[C@H](O)C2)NC(=O)CCOc2ccc(OC)cc2)cc1 [Compound 454]
48 | ≤ 0.1 | COCCOc1ccc(C(=O)CCCCC(=O)N[C@H](CN2CC[C@H](O)C2)[C@H](O)c2ccc(OCCCCF)cc2)cc1 [Compound 455]
49 | ≤ 0.1 | COCCCCCCCC(=O)N[C@H](CN1CC[C@H](O)C1)[C@H](O)c1ccc(OC(C)C)cc1 [Compound 456]
50 | ≤ 0.1 | COCCOc1ccc(C(=O)CCCC(=O)N[C@H](CN2CC[C@H](O)C2)[C@H](O)c2ccc(OCCCCF)cc2)cc1 [Compound 457]
51 | 3 to 10 | COc1ccc(C(=O)CCCCCC(=O)N[C@H](CNC2CCCCC2)[C@H](O)c2ccc3c(c2)OCCO3)cc1 [Compound 458]
52 | 3 to 10 | CCCCN(CCCC)C[C@@H](NC(=O)CCCCCC(=O)c1ccc(OC)cc1)C(O)c1ccc2c(c1)OCCO2 (stereo partly drawn) [Compound 459]
53 | 1 to 3 | COc1ccc(C(=O)CCCCCC(=O)N[C@H](CNC2CCC2)[C@H](O)c2ccc3c(c2)OCCO3)cc1 [Compound 460]
54 | 0.1 to 1 | CCC(C)NC[C@@H](NC(=O)CCCCCC(=O)c1ccc(OC)cc1)C(O)c1ccc2c(c1)OCCO2 (stereo partly drawn) [Compound 461]
55 | 1 to 3 | CCCCNC[C@@H](NC(=O)CCCCCC(=O)c1ccc(OC)cc1)C(O)c1ccc2c(c1)OCCO2 (stereo partly drawn) [Compound 462]
56 | 0.1 to 1 | COc1ccc(C(=O)CCCCCC(=O)N[C@H](CNC2CCCC2)[C@H](O)c2ccc3c(c2)OCCO3)cc1 [Compound 463]
57 | 3 to 10 | COc1ccc(C(=O)CCCCCC(=O)N[C@H](CN(CC2CC2)CC2CC2)[C@H](O)c2ccc3c(c2)OCCO3)cc1 [Compound 464]
58 | 0.1 to 1 | COc1ccc(C(=O)CCCCCC(=O)N[C@H](CNC(C)C)C(O)c2ccc3c(c2)OCCO3)cc1 (stereo partly drawn) [Compound 465]
59 | 3 to 10 | COc1ccc(C(=O)CCCCCC(=O)N[C@H](CNCC(C)(C)C)[C@H](O)c2ccc3c(c2)OCCO3)cc1 [Compound 466]
60 | 0.1 to 1 | CCCNC[C@@H](NC(=O)CCCCCC(=O)c1ccc(OC)cc1)C(O)c1ccc2c(c1)OCCO2 (stereo partly drawn) [Compound 467]
61 | ≤ 0.1 | COc1ccc(C(=O)CCCCCC(=O)N[C@@H](CN(C)C(C)C)[C@@H](O)c2ccc3c(c2)OCCO3)cc1 [Compound 468]
62 | 0.1 to 1 | COc1ccc(C(=O)CCCCCC(=O)N[C@@H](CN(C)C)[C@@H](O)c2ccc3c(c2)OCCO3)cc1 [Compound 469]
63 | 0.1 to 1 | CCCN(C)C[C@H](NC(=O)CCCCCC(=O)c1ccc(OC)cc1)[C@@H](O)c1ccc2c(c1)OCCO2 [Compound 470]
64 | 1 to 3 | COc1ccc(C(=O)CCCCCC(=O)N[C@H](CN2CCCC2)C(O)C2CCCCC2)cc1 (stereo partly drawn) [Compound 471]

Row | Compound | IC50 [µM]
65 | O=C(CCCOc1ccc(F)cc1)N[C@@H](CN1C2CCC1CC2)C(O)c1ccc2c(c1)OCCO2 (stereo partly drawn) [Compound 472] | 0.1 to 1
66 | O=C(CCOc1ccc(F)cc1)N[C@H](CN1C2CCC1CC2)[C@H](O)c1ccc2c(c1)OCCO2 [Compound 473] | ≤ 0.1

— US8304447B2, “2-acylaminopropoanol-type glucosylceramide synthase inhibitors” (Genzyme Corporation, priority 2007, dated 2012)
